# Measurements reported in US6930088B2, “Conformationally constrained backbone cyclized somatostatin analogs” (Peptor Ltd., priority 1998, dated 2005).
# “Also recorded” adds a separate entry of the source.
# What was measured:
# [1] = system: human peripheral blood lymphocytes (PBL); assay: Human PBL proliferation assay (mitogenicity); format: cell-based; details: PBL proliferation assays
# Description: PTR 3173 was furthermore found to be not mitogenic for human lymphocytes in human peripheral blood lymphocytes (PBL) proliferation assays.
# [2] = system: glucagon release; assay: In-vivo effect on glucagon release; set-up: species or system Wistar male rats
# Experimental: In-vivo determination of the release of glucogon as a result of peptide administration was measured in Wistar male rats.
# Time course profiles for glucagon release under constant experimental conditions were measured.
# Male Wistar rats were fasted overnight. Animals were anesthetized with Nembutal (IP, 60 mg/kg). Ten minutes after anesthesia, drugs were administrated S.C. at 0.01-100 microgram/kg dose. Stimulation of glucagon secretion was performed by I.V. administration of L-arginine, 0.5 g/kg, 5 minutes before blood collection from portal vein. Hormone concentration was measured by RIA.
# [3] = Pharmacokinetics following IV & SC administration; details: for dose excreted: urine
# [4] = system: Chromogranin A release from BON-1; assay: Inhibition of Chromogranin A release from BON-1; format: cell-based; details: human Carcinoid cell line BON-1
# Description: Assessment of Chromogranin A release from BON-1 is an important assay aimed at identifying potential anti Carcinoid drugs. Chromagranin A is one of the principal mediators in degranulation of tumor granules, which secrete excessive amounts of vasoactive substances from Carcinoid tumors.
# [5] = In vitro biostability in renal homogenate (HPLC)
# Experimental: The assay was based on HPLC determination of peptide degradation as a function of time in renal homogenate at 37° C.
# [6] = target: T1, SSTR-1 (Homo sapiens, UniProt P30872); assay: Inhibition of 125I-Tyr11-SRIF binding to membrane preparations expressing SSTR-1; details: read-out: Percent inhibition of SRIF-14 binding
# T1 construct: expressed in transfected cells
# T1 sequence (P30872 whole entry): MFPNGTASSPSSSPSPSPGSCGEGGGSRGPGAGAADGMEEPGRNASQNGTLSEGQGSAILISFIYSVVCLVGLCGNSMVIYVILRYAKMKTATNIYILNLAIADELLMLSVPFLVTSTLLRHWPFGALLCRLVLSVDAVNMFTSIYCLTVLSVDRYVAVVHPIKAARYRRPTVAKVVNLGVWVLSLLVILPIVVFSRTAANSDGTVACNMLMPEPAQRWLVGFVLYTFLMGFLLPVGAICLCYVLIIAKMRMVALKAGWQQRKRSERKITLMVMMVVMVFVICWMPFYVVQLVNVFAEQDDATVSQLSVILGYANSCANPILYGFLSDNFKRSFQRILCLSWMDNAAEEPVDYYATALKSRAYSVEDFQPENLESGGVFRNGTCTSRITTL
# Experimental: The somatostatin analogs were tested for their potency in inhibition of the binding of ^125I-Tyr^11-SRIF (based on the method described by Raynor et. al., Molecular Pharmacology, 1993, 43, 838-844) to membrane preparations expressing the transmembranal somatostatin receptors (SSTR-1, 2, 3, 4 or 5). The receptor preparations used for these tests were either from the cloned human receptors selectively and stably expressed in Chinese Hamster Ovary (CHO) cells or from cell lines naturally expressing the SSTRs. […] The binding reactions were filtered, the filters were washed and the bound radioactivity was counted in gamma counter. Non specific binding was defined as the radioactivity remaining bound in the presence of 1 μM unlabeled SRIF-14.
# (§1) In order to validate positive signals of the binding tests, and to eliminate non-specific signals, samples of irrelevant peptides, such as GnRH, that were synthesized and handled using the same procedures, were tested in the same assays as negative control samples. These samples had no binding activity in any of the assays. Results are shown below in Tables 5 and 6 and FIG. 1.
# [7] = system: human Carcinoid BON-1 cells; assay: Inhibition of cAMP in human Carcinoid BON-1 cells; format: cell-based; details: following Forskolin stimulation
# Description: The activation of SST-R5 leads to the reduction of Adenylate Cyclase activity. Somatostatin receptors including type-5 receptors are expressed in the human Carcinoid derived cell line BON-1. This human cell culture served as an in-vitro discovery assay for novel Carcinoid therapeutics. Interaction of somatostatin analogs with Somatostatin receptors expressed in this system subsequently affects cellular functionality of BON-1.
# [8] = target: T2, SSTR-5 (Homo sapiens, UniProt P35346); assay: Inhibition of 125I-Tyr11-SRIF binding to membrane preparations expressing SSTR-5; details: read-out: Percent inhibition of SRIF-14 binding
# T2 construct: expressed in transfected cells
# T2 sequence (P35346 whole entry): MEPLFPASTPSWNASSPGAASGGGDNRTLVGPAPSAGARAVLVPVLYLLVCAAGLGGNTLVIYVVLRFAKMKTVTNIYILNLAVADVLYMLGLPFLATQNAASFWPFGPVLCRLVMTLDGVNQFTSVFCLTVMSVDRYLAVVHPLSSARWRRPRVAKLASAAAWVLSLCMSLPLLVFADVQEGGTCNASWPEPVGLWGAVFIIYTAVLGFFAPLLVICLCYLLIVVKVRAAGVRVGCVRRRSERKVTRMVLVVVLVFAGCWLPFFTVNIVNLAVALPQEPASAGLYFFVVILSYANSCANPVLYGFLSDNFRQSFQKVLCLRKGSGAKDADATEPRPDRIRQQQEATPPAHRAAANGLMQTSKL
# Experimental: (§2) The receptor preparations used for these tests were either from the cloned human receptors selectively and stably expressed in Chinese Hamster Ovary (CHO) cells or from cell lines naturally expressing the SSTRs. […] The binding reactions were filtered, the filters were washed and the bound radioactivity was counted in gamma counter. Non specific binding was defined as the radioactivity remaining bound in the presence of 1 μM unlabeled SRIF-14.
# as §1
# [9] = Metabolic bio-stability against degradation by enzyme mixtures; format: in vitro ADME; details: in words; renal homogenate, rat liver homogenate and human serum
# [10] = Initial safety testing in rodents; format: in vivo; details: dose 10,000-fold higher then the efficacious dose for inhibiting Growth hormone release
# Experimental: (§3) PTR 3173 was tested in various species for its initial safety properties. Under the European Pharmacopoeia requirements for safety testing, it was declared a safe drug candidate at this stage of development.
# [11] = Initial safety testing in dogs; format: in vivo; details: dose 10,000-fold higher then the efficacious dose for inhibiting Growth hormone release
# Experimental: as §3
# [12] = system: growth hormone (GH) release; assay: In-vivo inhibition of growth hormone release; set-up: species or system Wistar male rats
# Experimental: Inhibition of growth hormone (GH) release as a result of peptide administration was measured in Wistar male rats.
# Adult male Wistar rats weighing 200-250 g, were maintained on a constant light-dark cycle (light from 8:00 to 20:00 h), temperature (21±3° C.), and relative humidity (55±10%). Laboratory chow and tap water were available ad libitum. On the day of the experiment, rats were anesthetized with Nembutal (IP, 60 mg/kg). Ten minutes after anesthesia, drugs were administered S.C. at 0.01-100 microgram/kg dose. Stimulation of GH was performed by I.V. administration of 0.5 g/kg of L-Arginine through femoral vein. Sampling was carried out following 5 minutes of stimulation, at 15 or 30 minutes after peptide administration. Blood samples were collected form abdominal vena-cava into tubes containing heparin (15 units per ml of blood) and centrifuged immediately. Plasma was separated and kept frozen at −20° C. until assayed. Rat growth hormone (rGH) [^125I] levels were determined by means of a radioimmunoassay kit (Amersham). The standard in this kit has been calibrated against a reference standard preparation (NIH-RP2) obtained from the National Institute of Diabetes and Digestive and Kidney Diseases. All samples were measured in duplicate.
# [13] = target: T3, SSTR-2 (Homo sapiens, UniProt P30874); assay: Inhibition of 125I-Tyr11-SRIF binding to membrane preparations expressing SSTR-2; details: read-out: Percent inhibition of SRIF-14 binding
# T3 construct: expressed in transfected cells
# T3 sequence (P30874 whole entry): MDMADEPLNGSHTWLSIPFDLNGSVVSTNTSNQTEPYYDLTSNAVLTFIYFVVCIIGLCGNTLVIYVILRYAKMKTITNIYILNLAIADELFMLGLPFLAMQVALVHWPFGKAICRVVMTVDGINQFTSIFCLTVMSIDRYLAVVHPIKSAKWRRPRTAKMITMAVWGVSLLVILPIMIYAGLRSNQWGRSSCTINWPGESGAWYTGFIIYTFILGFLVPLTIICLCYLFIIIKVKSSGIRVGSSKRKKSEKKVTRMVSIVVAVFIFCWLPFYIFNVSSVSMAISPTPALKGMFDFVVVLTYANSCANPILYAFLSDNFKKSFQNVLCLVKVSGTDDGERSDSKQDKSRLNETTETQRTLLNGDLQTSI
# Experimental: as §2, §1
# [14] = Table 4, physiological selectivity
# [15] = kidney or brush border membranes
smiles,measurement,setting,value
"C[C@@H](O)[C@@H]1NC(=O)[C@H](CCCCN)NC(=O)[C@@H](Cc2c[nH]c3ccccc23)NC(=O)[C@H](Cc2c[nH]c3ccccc23)NC(=O)[C@H](Cc2ccccc2)NC(=O)CCCNC(=O)CCCN(CC(N)=O)C(=O)[C@H](Cc2ccccc2)NC1=O [PTR 3173, GABA*-Phe-Trp-(D)Trp-Lys-Thr-Phe-Gly(C3)-X]",mitogenicity for human lymphocytes,[1],not mitogenic
same,effect on glucagon levels compare to control,"[2]; 100 micrograms per kilogram, FIG. 4",statistically significant difference in glucagon levels compare to control
same,Glucagon ID50,[2]; [14],>100 µg/kg
same,effect on glucagon (general statement),"[2]; in words, no dose stated",considerably lower affect on the release of glucagon than Octreotide; also recorded: much less activity on glucagon
same,GH Glucagon,"[2]; ratio of ID50 values, Table 4",">1,000"
same,Clearance,"[3]; SC, Conscious Wistar rats",13.3 mL/min/kg
same,Clearance,"[3]; Wistar, rat, in vivo, iv",13 mL/min/kg
same,Vd,"[3]; Wistar, rat, in vivo, iv",0.653 L/kg
same,half-life,"[3]; Wistar, rat, in vivo, iv, T½β (min) circulating half life, Conscious Wistar rats",0.517 h
same,bioavailability,"[3]; Wistar, rat, in vivo, sc",99.6%
same,half-life,"[3]; Wistar, rat, in vivo, sc, T½β (min) circulating half life, Conscious Wistar rats",2.83 h
same,half-life,"[3]; Wistar, rat, in vivo, sc, circulatory half-life, subcutaneous administration to rats",~3 h
same,dose excreted,"[3]; Wistar, rat, iv",10.3%
same,dose excreted,"[3]; Wistar, rat, sc",15.9%
same,pharmacokinetic profile,"[3]; subcutaneous administration, animals",flip flop (a slow release kinetic) pharmacokinetcs
same,inhibition of Chromogranin A release,[4],inhibits Chromogranin A release; also recorded: significant anti-release effect; also recorded: equivalent potency with the native hormone Somatostatin
same,Percent of intact molecule after incubation in renal homogenate,"[5]; Time 0 hrs, 37° C.",100%
same,remaining at 1 h,[5]; [15],100%
same,remaining at 3 h,[5]; [15],100%
same,remaining at 24 h,[5]; [15],100%
same,inhibition at 10 pM,[6],0%
same,inhibition at 0.0001 µM,[6],0%
same,inhibition at 0.001 µM,[6],0%
same,inhibition at 0.01 µM,[6],0%
same,inhibition at 0.1 µM,[6],5%
same,inhibition at 1 µM,[6],15%
same,inhibition of cAMP production,[7],equipotent to clinically used drug Octreotide
same,inhibition at 10 pM,[8],20%
same,inhibition at 0.0001 µM,[8],48%
same,inhibition at 0.001 µM,[8],63%
same,inhibition at 0.01 µM,[8],82%
same,inhibition at 0.1 µM,[8],95%
same,inhibition at 1 µM,[8],95%
same,metabolic bio-stability against degradation by enzymes,[9],considerable metabolic bio-stability against degradation by enzymes
same,toxicity signs,[10],No toxicity signs
same,toxicity signs,[11],No toxicity signs
same,effect on growth hormone release,"[12]; 100 micrograms per kilogram, L-arginine stimulation, Nembutal anesthesia, FIG. 3",equipotent inhibitors of growth hormone release in comparison to Octreotide
same,GH ID50,[12]; [14],0.1 µg/kg
same,effect on growth hormone (general statement),"[12]; in words, no dose stated",significant inhibition with prolonged duration of action on the Growth Hormone-IGF-1 axis of a similar magnitude as the drug Octreotide; also recorded: potent inhibitor of growth hormone
same,inhibition at 10 pM,[13],15%
same,inhibition at 0.0001 µM,[13],30%
same,inhibition at 0.001 µM,[13],42%
same,inhibition at 0.01 µM,[13],80%
same,inhibition at 0.1 µM,[13],95%
same,inhibition at 1 µM,[13],96%
